# Data published in EP0468434B1, “Novel piperidyl ethers and thioethers as inhibitors of cholesterol biosynthesis” (MERRELL DOW PHARMACEUTICALS INC., priority 1990, dated 1992).
# Target: T1, oxidosqualene cyclase (Rattus norvegicus, UniProt P48450)
# T1 construct: Microsomes, prepared by ultracentrifugation of homogenates of rat liver; from tissue; host or cells: rat liver microsomes plus high speed supernatant fraction
# T1 sequence (P48450 1-733): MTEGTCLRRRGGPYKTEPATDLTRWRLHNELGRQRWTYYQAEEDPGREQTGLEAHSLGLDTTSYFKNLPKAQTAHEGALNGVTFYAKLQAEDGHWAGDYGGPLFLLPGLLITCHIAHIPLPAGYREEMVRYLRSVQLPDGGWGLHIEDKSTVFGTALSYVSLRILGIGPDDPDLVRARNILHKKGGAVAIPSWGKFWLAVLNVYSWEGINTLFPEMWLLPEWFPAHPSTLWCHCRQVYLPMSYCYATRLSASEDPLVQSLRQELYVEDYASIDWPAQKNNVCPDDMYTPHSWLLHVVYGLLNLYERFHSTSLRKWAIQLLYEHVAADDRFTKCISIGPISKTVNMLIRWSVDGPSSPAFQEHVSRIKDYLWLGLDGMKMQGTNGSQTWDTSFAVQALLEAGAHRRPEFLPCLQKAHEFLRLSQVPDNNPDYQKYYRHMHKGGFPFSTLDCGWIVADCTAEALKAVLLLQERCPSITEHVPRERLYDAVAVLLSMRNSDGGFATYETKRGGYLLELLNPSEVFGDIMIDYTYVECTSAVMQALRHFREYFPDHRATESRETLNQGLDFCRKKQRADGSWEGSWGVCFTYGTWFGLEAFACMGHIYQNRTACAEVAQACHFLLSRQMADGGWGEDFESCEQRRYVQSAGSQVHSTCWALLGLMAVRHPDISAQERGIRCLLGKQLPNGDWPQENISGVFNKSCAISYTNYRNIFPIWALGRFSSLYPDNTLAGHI
# Assay: Inhibition of cholesterol biosynthesis: oxidosqualene cyclase in rat liver microsomes (TLC or HPLC assay)
# Type: biochemical
# Conditions: 37°C, 45 minutes, 60µM ³H-squalene, 2.0mM NADPH, 0.01mM FAD, compounds tested at 0.0 to 100.0µM, read-out: Cyclase, IC₅₀
# Experimental: The following example illustrates the utility of compounds of formula (1) in inhibiting cholesterol biosynthesis. This example is understood to be illustrative only and is not intended to limit the scope of the present invention in any way. Microsomes, prepared by ultracentrifugation of homogenates of rat liver, are incubated at 37°C for 45 muinutes in the presence of 60µM ³H-squalene, 2.0mM NADPH, 0.01mM FAD, and the high speed supernatant fraction from the microsomal preparation. Blanks, in which NADPH has been omitted, are run simultaneously with the test compounds. Compounds are tested at concentrations of 0.0 to 100.0µM.
# • a) TLC Assay: Following incubation, the samples are saponified, standards are added to each sample, and then the reaction products are extracted into hexane. […] Spots containing the reaction products are scraped from the TLC plates and counted for ³H-radioactivity in a scintillation counter. An IC₅₀ for squalene epoxidase and oxidosqualene cyclase is calculated. • b) HPLC Assay: Following incubation, reactions are stopped by the addition of chloroform:methanol, standards are added, then reaction products and standards are extracted into chloroform. […] Chromatographic peaks containing reaction products are monitored for ³H- radioactivity with a flow-through scintillation counter connected in series with the HPLC column. […]
row,IC50,SMILES
1,24 µM,CC(C)CCSCCCCCN1CCCCC1 [Compound A]
2,> 100 µM,"CCSCCN1CCCCC1 [Compound E, 2-(1-piperidyl)ethyl ethyl sulfide]"
